Series [1] is described as follows: Plasma protein binding rate (equilibrium dialysis). The conditions noted are these: mouse plasma, equilibrium dialysis 37° C. 5 hours. The class given is in vitro ADME. Here is the method:
Test Embodiment 8. Plasma Protein Binding Rate Experiment
The purpose of this experimental method was to detect the plasma protein binding of the embodiment compounds in plasma.
The frozen plasma was thawed at room temperature or in a water bath at 37° C., then centrifuged at 3500 rpm for 5 min, and the supernatant was taken.
Preparation of compound working solution: Stock solutions were diluted with DMSO to a final concentration of 1 mM.
2.5 μL of compound working solution was added to 497.5 μL of blank plasma to a final concentration of 5 μM, shaked and mixed well.
1) The equilibrium dialysis device was prepared, and the detection membrane device was put into the equilibrium dialysis 96-well plate;
2) 200 μL of the prepared plasma solution was added to the membrane, n=2;
3) another 5 μL of plasma solution was taken, diluted 10 times with 45 μL of blank plasma of the same species, and 200 μL of acetonitrile termination solution containing internal standard was added, and stored in a −20° C. refrigerator;
4) 350 μL of dialysate (100 mM phosphate buffer) was added outside the membrane;
5) the dialysis plate was sealed and incubated in a 37° C. water bath for 5 hours;
6) after dialysis, 5 μL was taken out from the sample hole in the membrane, and diluted 10 times with 45 μL of blank plasma of the same species; 50 μL of dialysate was taken out from the sample hole outside the membrane, and 200 μL of acetonitrile termination solution containing internal standard was added;
7) the supernatant was taken after sample centrifugation;
In general terms: In equilibrium dialysis free small molecules cross a membrane that holds back macromolecules.

Series [2] relates to NFAT-luc2/PD1 Jurkat cells. Put plainly: In vitro cytotoxicity on NFAT-luc2/PD1 Jurkat cells (CellTiter-Glo). The format is cell-based. The note with it: 72 hours; for IC50: Homo sapiens, Jurkat. As to the method: Test Embodiment 5. In Vitro Cytotoxicity of the Compounds of the Present Disclosure on NFAT-Luc2/PD1 Jurkat Cells and MC38-hPDL1 Cells
Experimental purpose: To test the in vitro cytotoxicity of compounds on NFAT-luc2/PD1 Jurkat cells and MC38-hPDL1 cells.
When the cells were cultured to an appropriate degree of confluency, the cells were collected, and the cells was adjusted in an appropriate cell concentration by complete medium, then the cell suspension was plated in a 96-well plate, 90 μL per well, and put in a 37° C., 5% CO2 incubator overnight; compound solutions of different concentrations were prepared by DMSO and medium, and a vehicle control was set; compound solutions were added to a 96-well plate, 10 μL per well, and put in a 37° C., 5% CO2 incubator and cultured for 72 hours. After that, CellTiter-Glo solution was added, the mixture was shaken and mixed evenly, incubated in the dark for 10 minutes, and a BioTek Synergy H1 microplate reader was used for reading.
Luminescence signal value was used to calculate the inhibition rate, and the concentration and inhibition rate were fitted by nonlinear regression curve using Graphpad Prism software to obtain IC50 values, as shown in the following table: […]
A general note: ATP-based viability assays read luminescence as a measure of living cells.

Series [3] is described as follows: Pharmacokinetic test of plasma and tumor of tumor-bearing nude mice. The format is in vivo. The note with it: tumor-bearing nude mice, p.o. 30 mg/kg; for Kp: female, mouse, tumor/plasma, po, read-out: Tumor plasma ratio. As to the method:
Test Embodiment 7. Pharmacokinetic Test of Plasma and Tumor of Tumor-Bearing Nude Mice
Taking tumor-bearing nude mice as the test animals, the pharmacokinetic behavior in the plasma and tumor of tumor-bearing nude mice of the following compound embodiments was studied when orally administered at a dose of 30 mg/kg.
Tumor-bearing nude mouse 21/embodiment, female, Shanghai B&K Laboratory Animal Co., Ltd., animal production license number (SCXK (Shanghai) 2013-0006 No. 311620400001794).
0.5% HPMC (1% Tween 80), dissolved by sonication, to prepare a clear solution or a homogeneous suspension.
Tumor-bearing nude mice, female; p.o. after overnight fasting, respectively, at a dose of 30 mg/kg, administered in a volume of 10 mL/kg.
Before and after administration of tumor-bearing nude mice, at 0, 1, 2, 4, 6, 8, 16 and 24 hours, 0.1 mL of blood was collected from the orbit, placed in an EDTA-K2 test tube, and centrifuged at 6000 rpm at 4° C. for 6 min to separate the plasma. After dissection, the tumor tissue was weighed and stored at −80° C.
1) Tumor tissue was homogenized with methanol and water at a ratio of 1:3, and then centrifuged to get the supernatant. 40 μL of tumor homogenate supernatant and 40 μL of plasma sample were added to 160 μL of acetonitrile for precipitation, and after mixing, centrifuged at 3500×g for 5 to 20 minutes.
2) 100 μL of the supernatant solution after treatment was taken for LC/MS/MS to analyze the concentration of the compounds to be tested.
2.7 Liquid Phase Analysis • Liquid phase condition: Shimadzu LC-20AD pump • MS conditions: AB Sciex API 4000 Mass Spectrometer • Chromatographic column: phenomenex Gemiu 5 μm C18 50×4.6 mm • Mobile phase: A solution was aqueous 0.1% formic acid solution, B solution was acetonitrile • Flow rate: 0.8 mL/min • Elution time: 0 to 4.0 minutes, the eluent was as follows:
The main parameters of pharmacokinetics were calculated with WinNonlin 8.2, and the results of the tumor-bearing nude mice pharmacokinetic experiments were shown in the following table: […]

This is an account of results in patent US20230105212A1, “BIPHENYL DERIVATIVE INHIBITOR, PREPARATION METHOD THEREFOR AND USE THEREOF” (SHANGHAI HANSOH BIOMEDICAL CO., LTD., priority 2020, published 2023).

For orientation: fraction unbound means free concentration divided by total concentration. As a reminder, the IC50 is the concentration needed to halve the response being measured.

For the compound `COc1nc(-c2cccc(-c3cccc(NC(=O)c4nc5c(n4C)CCN(C)C5)c3Cl)c2Cl)cnc1CN1CC2(C1)CN(C(C)=O)C2` [Embodiment 152, N-(3′-(5-((6-Acetyl-2,6-diazaspiro[3.3]heptan-2-yl)methyl)-6-methoxypyrazin-2-yl)-2,2′-dichloro-[1,1′-biphenyl]-3-yl)-1,5-dimethyl-4,5,6,7-tetrahydro-1H-imidazo[4,5-c]pyridine-2-carboxamide], the fraction unbound at 5 h, 5 μM in series [1] was 0.0181. Moreover, in series [2], the “Jurkat-PD1 inhibition rate (%)” value was found to be 97% and the IC50 was 4.46 µM. For the same compound, in series [3], the Kp is 4.6, the “Drug concentration in plasma” value is on record as 153 ng/mL and the “Drug concentration in tumor” value turned out to be 707 ng/mL.

As to `COc1nc(-c2cccc(-c3cccc(NC(=O)c4nc5c(n4C)CCN(C)C5)c3Cl)c2Cl)ncc1CN1CC(CNC(C)=O)C1` [Embodiment 225, N-(3′-(5-((3-(Acetylaminomethyl)azetidin-1-yl)methyl)-4-methoxypyrimidin-2-yl)-2,2′-dichloro-[1,1′-biphenyl]-3-yl)-1,5-dimethyl-4,5,6,7-tetrahydro-1H-imidazo[4,5-c]pyridine-2-carboxamide], in series [2], the “Jurkat-PD1 inhibition rate (%)” value is on record as 51% and the IC50 worked out at 9.07 µM.

Consider `COc1nc(-c2cccc(-c3cccc(NC(=O)c4nc5c(n4C)CCN(C)C5)c3Cl)c2Cl)ccc1CNC(CO)CO` [Embodiment 174, N-(2,2′-Dichloro-3′-(5-(((1,3-dihydroxypropan-2-yl)amino)methyl)-6-methoxypyridin-2-yl)-[1,1′-biphenyl]-3-yl)-1,5-dimethyl-4,5,6,7-tetrahydro-1H-imidazo[4,5-c]pyridine-2-carboxamide], for which, in series [3], the Kp worked out at 2.4, the “Drug concentration in plasma” value was found to be 291 ng/mL and the “Drug concentration in tumor” value stood at 697 ng/mL.

Compound `COc1nc(-c2cccc(-c3cccc(NC(=O)c4nc5c(n4C)CCN(C)C5)c3Cl)c2Cl)ccc1CN1CC(NC(C)=O)C1` [Embodiment 180, N-(3′-(5-((3-Acetylaminoazetidin-1-yl)methyl)-6-methoxypyridin-2-yl)-2,2′-dichloro-[1,1′-biphenyl]-3-yl)-1,5-dimethyl-4,5,6,7-tetrahydro-1H-imidazo[4,5-c]pyridine-2-carboxamide] showed a fraction unbound at 5 h, 5 μM in series [1] of 0.0044.

Take `COc1nc(-c2cccc(-c3cccc(NC(=O)c4nc5c(n4C)CCN(C)C5)c3Cl)c2Cl)ccc1CN1CC(C(=O)N(C)C)C1` [Embodiment 183, N-(2,2′-Dichloro-3′-(5-((3-(dimethylcarbamoyl)azetidin-1-yl)methyl)-6-methoxypyridin-2-yl)-[1,1′-biphenyl]-3-yl)-1,5-dimethyl-4,5,6,7-tetrahydro-1H-imidazo[4,5-c]pyridine-2-carboxamide]: in series [2], the “Jurkat-PD1 inhibition rate (%)” value is 71% and the IC50 is 5.82 µM. Also, in series [3], the Kp is 2.3, the “Drug concentration in plasma” value is 309 ng/mL and the “Drug concentration in tumor” value turned out to be 697 ng/mL.

For the compound `COc1nc(-c2cccc(-c3cccc(NC(=O)c4nc5c(n4C)CCN(C)C5)c3Cl)c2Cl)ncc1CN1CC(CO)C1` [Embodiment 223, N-(2,2′-Dichloro-3′-(5-((3-(hydroxymethyl)azetidin-1-yl)methyl)-4-methoxypyrimidin-2-yl)-[1,1′-biphenyl]-3-yl)-1,5-dimethyl-4,5,6,7-tetrahydro-1H-imidazo[4,5-c]pyridine-2-carboxamide], in series [2], the “Jurkat-PD1 inhibition rate (%)” value stood at 77% and the IC50 turned out to be 4.77 µM. Also, in series [3], the Kp worked out at 3.5, the “Drug concentration in plasma” value is recorded as 432 ng/mL and the “Drug concentration in tumor” value was found to be 1504 ng/mL.

With `COc1nc(-c2cccc(-c3cccc(NC(=O)c4nc5c(n4C)CCN(C)C5)c3Cl)c2Cl)ccc1CN[C@H]1CCOC[C@@H]1O` (relative stereo) [Embodiment 175, N-(2,2′-Dichloro-3′-(5-((((3,4-trans)-3-hydroxytetrahydro-2H-pyran-4-yl)amino)methyl)-6-methoxypyridin-2-yl)-[1,1′-biphenyl]-3-yl)-1,5-dimethyl-4,5,6,7-tetrahydro-1H-imidazo[4,5-c]pyridine-2-carboxamide], the fraction unbound at 5 h, 5 μM in series [1] amounted to 0.0052. For the same compound, in series [3], the Kp came out at 2.1, the “Drug concentration in plasma” value was 485 ng/mL and the “Drug concentration in tumor” value is given as 1009 ng/mL.

`COc1nc(-c2cccc(-c3cccc(NC(=O)c4nc5c(n4C)CCN(C)C5)c3Cl)c2Cl)cnc1CN1CC(NC(C)=O)C1` [Embodiment 218, N-(3′-(5-((3-Acetylaminoazetidin-1-yl)methyl)-6-methoxypyrazin-2-yl)-2,2′-dichloro-[1,1′-biphenyl]-3-yl)-1,5-dimethyl-4,5,6,7-tetrahydro-1H-imidazo[4,5-c]pyridine-2-carboxamide]: in series [2], the “Jurkat-PD1 inhibition rate (%)” value worked out at 85% and the IC50 was determined as 4.32 µM.

Take `COc1nc(-c2cccc(-c3cccc(NC(=O)c4nc5c(n4C)CCN(C)C5)c3Cl)c2Cl)ccc1CN1CC2(C1)CN(C(=O)C(C)C)C2` [Embodiment 186, N-(2,2′-Dichloro-3′-(5-((6-isobutyryl-2,6-diazaspiro[3.3]heptan-2-yl)methyl)-6-methoxypyridin-2-yl)-[1,1′-biphenyl]-3-yl)-1,5-dimethyl-4,5,6,7-tetrahydro-1H-imidazo[4,5-c]pyridine-2-carboxamide]: the fraction unbound at 5 h, 5 μM in series [1] is 0.003.

`CCC(=O)N1CC2(CN(Cc3ccc(-c4cccc(-c5cccc(NC(=O)c6nc7c(n6C)CCN(C)C7)c5Cl)c4Cl)nc3OC)C2)C1` [Embodiment 188, N-(2,2′-Dichloro-3′-(6-methoxy-5-((6-propionyl-2,6-diazaspiro[3.3]heptan-2-yl)methyl)pyridin-2-yl)-[1,1′-biphenyl]-3-yl)-1,5-dimethyl-4,5,6,7-tetrahydro-1H-imidazo[4,5-c]pyridine-2-carboxamide] gave a fraction unbound at 5 h, 5 μM in series [1] of 0.0052.

Consider `COc1nc(-c2cccc(-c3cccc(NC(=O)c4nc5c(n4C)CCN(C)C5)c3Cl)c2Cl)ccc1CN1CC(O)(CO)C1` [Embodiment 173, N-(2,2′-Dichloro-3′-(5-((3-hydroxy-3-(hydroxymethyl)azetidin-1-yl)methyl)-6-methoxypyridin-2-yl)-[1,1-biphenyl]-3-yl)-1,5-dimethyl-4,5,6,7-tetrahydro-1H-imidazo[4,5-c]pyridine-2-carboxamide], for which, in series [3], the Kp turned out to be 2.2, the “Drug concentration in plasma” value is 291 ng/mL and the “Drug concentration in tumor” value is recorded as 628 ng/mL.

The compound `COc1nc(-c2cccc(-c3cccc(NC(=O)c4nc5c(n4C)CCN(C)C5)c3Cl)c2Cl)ccc1CN1CC2(COC2)C1` [Embodiment 124, N-(3′-(5-((2-Oxa-6-azaspiro[3.3]heptan-6-yl)methyl)-6-methoxypyridin-2-yl)-2,2′-dichloro-[1,1′-biphenyl]-3-yl)-1,5-dimethyl-4,5,6,7-tetrahydro-1H-imidazo[4,5-c]pyridine-2-carboxamide] registered a fraction unbound at 5 h, 5 μM in series [1] of 0.0057.
